{"source": "patent US20260272923A1", "about": "“NONSENSE MEDIATED DECAY INHIBITOR COMPOUNDS” (The Johns Hopkins University, priority 2023, published 2026)", "key": {"[1]": {"tested_on": "mutant form of TP53 protein", "test": "Western blot against TP53 in NCI-H716 and NCI-H2228 cell lines"}, "[2]": {"tested_on": "nonsense mediated decay (NMD)", "test": "Ratiometric mutant/wild type transcript sequencing assay (HTS) in RPE1 STAG2 and TP53 isogenic knockout cell lines", "assay_type": "cell-based", "description": "An experimental system was generated to identify and evaluate NMD inhibitors based on a panel of isogenic cell lines developed to assess tumor suppressor gene function and synthetic lethality. Briefly, common tumor suppressor genes were individually knocked out in multiple non-cancerous cell lines using the Clustered Regularly Interspaced Short Palindromic Repeats (CRISPR)-Cas9 system. As part of this effort, two genes displaying strong activation of NMD in response to indel creation were identified, Stromal Antigen 2 (STAG2) and Tumor Protein p53 (TP53). The absence of detectable protein in these knock out cell lines was verified via western blots against STAG2 and immunohistochemistry for TP53. Further, active RNA decay of the mutant transcripts was identified through whole transcriptome RNA-sequencing. […]\nA high throughput screen (HTS) was then performed by treating the isogenic cell line mixture with the SelleckChem Bioactive library, consisting of 2,658 small molecules and natural products (FIG. 1A). Total RNA was harvested from cells 16 hours post treatment and the gRNA target regions were amplified using a panel of primers (one for TP53 and one for STAG2) and mutant and wild type transcript abundance was quantified using next generation sequencing. […]"}, "[3]": {"tested_on": "truncated mutant TP53 protein", "test": "TP53 western blot in TP53 knockout clones", "assay_type": "cell-based", "conditions": "for expression of truncated mutant TP53 protein: TP53 knockout cell line with homozygous mutation, DO-1 antibody", "method": "(§1) To confirm generality of the NMD HTS hits, validations were performed on isogenic STAG2 and TP53 knockouts in a second cell line background, RPtec (renal) cells. Transcript recovery was first evaluated in STAG2 and TP53 isogenic knockout clones from this second background. […] A TP53 knockout cell line was then selected with a homozygous mutation predicted to generate a truncated TP53 protein readily identifiable by established TP53 antibodies (DO-1). […] Using cell lines where the TP530 isoform transcripts are expected to be intact, an increase in the TP53$ isoform was also observed in cell lines treated with the NMD inhibitors (FIG. 1E middle and left column). […] Based on strong induction of predicted mutant truncated protein across multiple isogenic cell lines LY3023414 was selected as the NMD inhibiting compound of interest. LY3023414 was created as a phosphatidylinositol 3-kinase (PI3K) inhibitor with activity against AKT Serine/Threonine Kinase 1 (AKT1) and Target of Rapamycin (mTOR)."}, "[4]": {"tested_on": "NMD sensitive transcripts (TP53β)", "test": "Quantitative real time PCR of TP53α and TP53β transcripts in parental RPE1 and RPTec cells", "assay_type": "cell-based", "method": "as §1"}, "[5]": {"tested_on": "nonsense mediated decay (NMD)", "test": "RNA sequencing of NCI-H358 and LS180 cancer cell lines", "assay_type": "cell-based", "description": "(§2) It was next sought to evaluate whether LY3023414 could relieve repression of indel containing transcripts in cancer cells. The microsatellite stable NCI-H358 and microsatellite instable LS180 lung and colorectal cancer cell lines were chosen respectively. Nearly 40% of heterozygous indel and 25% of nonsense single base-pair mutation containing genes show increased expression of their mutant allele when treated with LY3023414 when evaluated by RNA sequencing (FIG. 2A). […] Heterozygous single nucleotide polymorphism (SNP) Ring Finger Protein 43 (RNF43) and drosha ribonuclease […] (DROSHA) served as controls, and allele ratios remain unchanged with treatment (FIG. 2B). To investigate for changes at the protein level, NCI-H358 cells were treated for 24 hours with either LY3023414 or DMSO.\n(§3) Analyzing a wider set of 21 NMD sensitive genes from the RNA-Seq analysis in LS180 confirmed that LY3023414 and SMG1 specific inhibitor increase the same 18 genes with a greater than 80% re-expression rate, in both cell lines. […] As SMG1 inhibition is an off target effect for LY3023414, the concentrations used in this study may result in inhibition of a number of different kinases."}, "[6]": {"tested_on": "nonsense mediated decay (NMD)", "test": "Targeted RNA sequencing of heterozygous indel mutations in NCI-H358 and LS180 cells", "assay_type": "cell-based", "conditions": "NCI-H358 and LS180, in vitro", "description": "as §2, §3\n(§4) To confirm disruption of downstream signaling of SMG1, a western blot was performed with phosphorylation specific antibodies for UPF1."}, "[7]": {"tested_on": "NMD targeted mutant protein (EXOC1, SPTAN1)", "test": "Western blot of mutant proteins in NCI-H358 and LS180 cells", "assay_type": "cell-based", "conditions": "NCI-H358 cells, 24 hours", "description": "as §2, §3, §4"}, "[8]": {"tested_on": "nonsense mediated decay (NMD)", "test": "NCI-H358 and LS180 xenograft tumors in NOD-SCID mice, mutant RNA transcripts and tolerability", "assay_type": "in vivo"}, "phosphorylated UPF1": {"tested_on": "phosphorylated UPF1", "test": "Phospho-UPF1 specific western blot", "assay_type": "cell-based", "conditions": "FIG. 3D", "method": "as §3, §4"}, "[9]": {"tested_on": "nonsense mediated decay (NMD)", "test": "Targeted RNA-sequencing of indel genes in LS180 cells", "assay_type": "cell-based", "conditions": "serial dilution starting at 5 uM, 16 hrs", "method": "LS180 Cells were plated into 96 well plates at 1e4 cells/well. The compound of Formula III was solubilized in DMSO and added in a serial dilution starting at 5 uM and diluting 1:2. Cells were incubated for 16 hrs at 37 C and 5% CO2. RNA was harvested using an RNeasy kit (Qiagen). Reverse transcription was performed per manufacturer's instructions (High Capacity cDNA kit from Applied Biosciences). Primers specific for the indel mutation site for 3 genes were used, and at least one primer from each set overlapped an exon-exon boundary. RNF43 is a common SNP that is heterozygous in LS180 and was used as a negative control. After PCR amplification, products were barcoded with an 8 bp sequence so the well it originated in could be determined, and sequenced on a Miseq (Illumina). Transcripts from the wild type and mutant allele were counted to determine abundance of each with treatment or without (FIG. 8A)."}, "mutant protein (TP53) [10]": {"tested_on": "mutant protein (TP53)", "test": "TP53 western blot in H358, LS180 and RPE TP53 KO clone 224", "assay_type": "cell-based", "conditions": "5 uM, 16 hours", "method": "H358 (negative control), LSl80, and RPE TP53 KO line clone 224 were plated (at 1e5 cells per well) into 6 well plates. Wells were treated with 5 uM of the compound of Formula III for 16 hours. Cells were harvested, pelleted and washed with PBS. Cells were lysed using RIPA buffer (Thermo Scientific) and then run through a Qiashredder column (Qiagen) following manufacturer's instructions. Protein was quantified using a BCA Kit (Pierce). 50 ug of protein was loaded into 5-15% polyacrylamide gels (Biorad) and run for 30 min at 200V. Protein was transferred to a nitrocellulose membrane following manufacturer's recommendations and stained with a TP53 protein (clone DO-1 from Cell Signaling) overnight in 3% milk with TBS-T. HRP conjugated secondary antibody was used for detection and imaged on a gel imager (Bio Rad) (FIG. 8B)."}, "[11]": {"tested_on": "nonsense mediated decay (NMD)", "test": "Targeted RNA-sequencing of subcutaneous H358 and LS180 tumors in nude mice", "assay_type": "in vivo", "conditions": "IP dose at 30 mg/kg, H358 or LS180 tumors, 16 hours after treatment", "method": "All animal work was done under the supervision and guidance of Johns Hopkins Animal Care and Use committee with appropriate protocols and humane standards of care. LS180 and H358 cell lines (ATCC) were placed subcutaneously in the back of nude mice (Jackson Laboratories). The compound of Formula III was solubilized in 10% cremaphor (Sigma Aldrich) with 2% glycerol (Sigma Aldrich) and sterilized by 0.22 uM filter (Thermo Scientific). After tumors reached palpable size, about 7 days, mice were treated with […] of the compound of Formula III by IP injection. 16 hours after treatment, mice were sacked, and tumors were harvested and stored in RNA Later (Thermo Scientific). RNA was harvested using an RNeasy kit (Qiagen) and Qiashredder (Qiagen). Reverse transcription was performed per manufacturer's instructions (High Capacity cDNA kit from Applied Biosciences). Primers specific for the indel mutation site for 3 genes were used, and at least one primer from each set overlapped an exon-exon boundary. […] After PCR amplification, products were barcoded with an 8 bp sequence so the well it originated in could be determined, and sequenced on a Miseq (Illumina). Transcripts from the wild type and mutant allele were counted to determine abundance of each with treatment or without (FIGS. 9A-9B)."}, "[12]": {"tested_on": "nonsense mediated decay (NMD)", "test": "Real time PCR of STAG2 transcripts in RPE STAG2 knockout cells", "assay_type": "cell-based", "conditions": "serial dilution starting at 10 uM, 16 hrs", "method": "RPE STAG2 knockout cells were created and plated into 96 well plates at 1e4 cells/well. The compound of Formula II was solubilized in DMSO and added in a serial dilution starting at 10 uM and diluting 1:2. Cells were incubated for 16 hrs at 37 C and 5% CO2. RNA was harvested using an RNeasy kit (Qiagen). Real time PCR was performed using primers specific for STAG2 transcripts and at least one primer overlapped an exon-exon boundary (FIG. 7A)."}, "mutant protein (TP53) [13]": {"tested_on": "mutant protein (TP53)", "test": "TP53 western blot in TP53 KO lines", "assay_type": "cell-based", "conditions": "5 uM, 16 hours", "method": "TP53 KO lines were created and plated (at 1e5 cells per well) into 6 well plates. Wells were treated with 5 uM of the compound of Formula II for 16 hours. Cells were harvested, pelleted and washed with PBS. Cells were lysed using RIPA buffer (Thermo Scientific) and then run through a Qiashredder column (Qiagen) following manufacturer's instructions. Protein was quantified using a BCA Kit (Pierce). 50 ug of protein was loaded into 5-15% polyacrylamide gels (Biorad) and run for 30 min at 200V. Protein was transferred to a nitrocellulose membrane following manufacturer's recommendations and stained with a TP53 protein (clone DO-1 from Cell Signaling) overnight in 3% milk with TBS-T. HRP conjugated secondary antibody was used for detection and imaged on a gel imager (Bio Rad) (FIG. 7B)."}}, "data": [{"smiles": "O=c1[nH]cc(F)c(=O)[nH]1", "note": "[5-fluorouracil]", "values": [{"measurement": "TP53 protein levels", "setting": "[1]", "value": "no effect on TP53 levels"}]}, {"smiles": "COc1ccc(C[C@H]2NC[C@H](O)[C@H]2OC(C)=O)cc1", "note": "[Anisomycin]", "values": [{"measurement": "mutant transcript fraction", "setting": "[2]; 16 hours post treatment, in all three cell lines, 0.5 = 4 standard deviations above DMSO controls", "value": "above 0.5"}]}, {"smiles": "CO[C@@H](C)Cn1c(=O)n(C)c2cnc3ccc(-c4cncc(C(C)(C)O)c4)cc3c21", "note": "[LY3023414]", "values": [{"measurement": "induction of TP53β and mutant TP53 (western blot)", "setting": "[3]; RPE TP53 clone 223, RPTec TP53 KO 588, full-length not induced", "value": "prominently induced"}, {"measurement": "expression of truncated mutant TP53 protein", "setting": "[3]", "value": "robustly induced expression of the truncated mutant TP53 protein"}, {"measurement": "TP53α and TP53β transcript levels", "setting": "[4]", "value": "only the NMD regulated (TP53β) transcript levels increased with treatment"}, {"measurement": "heterozygous indel containing genes with increased expression of mutant allele", "setting": "[5]", "value": "~40", "unit": "%"}, {"measurement": "nonsense single base-pair mutation containing genes with increased expression of mutant allele", "setting": "[5]", "value": 25, "unit": "%"}, {"measurement": "mutant allele RNA expression", "setting": "[6]", "value": "significant increased expression of the mutant allele"}, {"measurement": "truncated mutant EXOC1 and SPTAN1 protein expression", "setting": "[7]", "value": "truncated mutant protein only expressed after treatment with LY3023414"}, {"measurement": "autopsies of treated animals", "setting": "[8]; mice treated with LY3023414", "value": "no abnormalities"}, {"measurement": "weight loss", "setting": "[8]; mice treated with LY3023414", "value": "severe weight loss"}, {"measurement": "expression of mutant RNA transcripts in tumors", "setting": "[8]; single dose by oral gavage, tumors harvested over 24 hours", "value": "increase in the expression of mutant RNA transcripts"}, {"measurement": "phospho-UPF1 levels", "setting": "phosphorylated UPF1", "value": "increases the levels of phospho-UPF"}]}, {"smiles": "CNC(=O)Nc1ccc(-c2cc(-c3ccnc(Nc4ccc(Cl)c(S(=O)(=O)N5CCN(C)CC5)c4)n3)ccn2)cc1", "note": "[compound of Formula III]", "values": [{"measurement": "mutant RNA re-expression", "setting": "[9]", "value": "re-expresses mutant RNA in vitro"}, {"measurement": "mutant protein re-expression", "setting": "mutant protein (TP53) [10]", "value": "re-expresses mutant protein in vitro"}, {"measurement": "in vivo NMD inhibition (re-expression of NMD downregulated genes)", "setting": "[11]", "value": "in vivo NMD inhibition activity"}]}, {"smiles": "CNC(=O)Nc1ccc(-c2cc(-c3ccnc(Nc4ccc(Cl)c(S(=O)(=O)N(CCO)CCO)c4)n3)ccn2)cc1", "note": "[compound of Formula II]", "values": [{"measurement": "mutant RNA re-expression", "setting": "[12]", "value": "re-expresses mutant RNA"}, {"measurement": "mutant protein re-expression", "setting": "mutant protein (TP53) [13]", "value": "re-expresses mutant protein"}]}, {"smiles": "CC[C@H]1CN2CCc3cc(OC)c(OC)cc3[C@@H]2C[C@@H]1C[C@H]1NCCc2cc(OC)c(OC)cc21", "note": "[emetine]", "values": [{"measurement": "recovery of mutant RNA transcript expression", "setting": "[2]; RPE1 STAG2/TP53 knockout cell line mixture", "value": 6, "unit": "fold"}]}, {"smiles": "O=C(CC1NCCCC1O)Cn1cnc2cc(Br)c(Cl)cc2c1=O", "note": "(centres unmarked) [halofuginone]", "values": [{"measurement": "expression of truncated mutant TP53 protein", "setting": "[3]", "value": "robustly induced expression of the truncated mutant TP53 protein"}]}]}
